Laboratory results taken from ChEMBL document CHEMBL1201862, “PubChem BioAssay data set” (2004).
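48-hour exposure; five concentrations; linearly interpolated endpoints. The concentration for 50% growth inhibition is given as GI50.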 The source made the active and inactive calls. Cut-off read from the data, not from the text of the source: active = GI50 up to about 1.1 µM and inactive = higher.

Key:
Assay in all cases: growth of human tumour cells (NCI), 48 h
[1] = tested on: OVCAR-3
[2] = tested on: SNB-19
[3] = tested on: SR
[4] = tested on: SW-620
[5] = tested on: A549
[6] = tested on: HOP-18
[7] = tested on: DMS-114
[8] = tested on: OVCAR-5
[9] = tested on: UO-31
[10] = tested on: UACC-62
[11] = tested on: SF-268
[12] = tested on: Malme-3M
[13] = tested on: IGROV-1
[14] = tested on: SF-539
[15] = tested on: NCI-H460
[16] = tested on: NCI-H23
[17] = tested on: KM12
[18] = tested on: OVCAR-4
[19] = tested on: K562
[20] = tested on: HOP-62
[21] = tested on: SK-OV-3
[22] = tested on: SN12C
[23] = tested on: COLO 205
[24] = tested on: KM-20L2
[25] = tested on: SK-MEL-2
[26] = tested on: HCT-116
[27] = tested on: CAKI-1
[28] = tested on: EKVX
[29] = tested on: DMS-273
[30] = tested on: U-251
[31] = tested on: HCT-15
[32] = tested on: RXF 393
[33] = tested on: LOX IMVI
[34] = tested on: OVCAR-8
[35] = tested on: M14
[36] = tested on: CCRF-CEM
[37] = tested on: XF498
[38] = tested on: LXFL 529
[39] = tested on: NCI-H226
[40] = tested on: RPMI-8226
[41] = tested on: SK-MEL-28
[42] = tested on: DLD-1
[43] = tested on: SK-MEL-5
[44] = tested on: NCI-H522
[45] = tested on: HCC 2998
[46] = tested on: M19-MEL
[47] = tested on: MOLT-4
[48] = tested on: ACHN
[49] = tested on: HT-29
[50] = tested on: TK-10
[51] = tested on: SNB-75
[52] = tested on: 786-0
[53] = tested on: UACC-257
[54] = tested on: HL-60
[55] = tested on: SF-295
[56] = tested on: SNB-78

Measured: GI50

OC1CCSc2ccccc21 (centres undefined)
inactive: [1] > 100 µM | [2] > 100 µM | [3] > 100 µM | [4] > 100 µM | [5] > 100 µM | [6] > 100 µM | [7] > 100 µM | [8] > 100 µM | [9] > 100 µM | [10] > 100 µM | [11] > 100 µM | [12] > 100 µM | [13] > 100 µM | [14] > 100 µM | [15] > 100 µM | [16] > 100 µM | [17] > 100 µM | [18] > 100 µM | [19] > 100 µM | [20] > 100 µM | [21] > 100 µM | [22] > 100 µM | [23] > 100 µM | [24] > 100 µM | [25] > 100 µM | [26] > 100 µM | [27] > 100 µM | [28] > 100 µM | [29] > 100 µM | [30] > 100 µM | [32] > 100 µM | [33] > 100 µM | [34] > 100 µM | [35] > 100 µM | [36] > 100 µM | [37] > 100 µM | [38] > 100 µM | [39] > 100 µM | [40] > 100 µM | [41] > 100 µM | [42] > 100 µM | [43] > 100 µM | [44] > 100 µM | [45] > 100 µM | [46] > 100 µM | [47] > 100 µM | [48] > 100 µM | [49] > 100 µM
> 100 µM: [31]

Cc1nc(N2N=C(c3ccc(Cl)cc3)CCC2=O)sc1[N+](=O)[O-]
> 100 µM: [31]
inactive: [1] > 100 µM | [2] > 100 µM | [3] > 100 µM | [50] > 100 µM | [4] > 100 µM | [5] > 100 µM | [6] > 100 µM | [7] > 100 µM | [51] > 100 µM | [52] > 100 µM | [9] > 100 µM | [10] > 100 µM | [11] > 100 µM | [12] > 100 µM | [13] > 100 µM | [14] > 100 µM | [15] > 100 µM | [16] > 100 µM | [17] > 100 µM | [18] > 100 µM | [53] > 100 µM | [19] > 100 µM | [20] > 100 µM | [21] > 100 µM | [54] > 100 µM | [22] > 100 µM | [23] > 100 µM | [24] > 100 µM | [25] > 100 µM | [26] > 100 µM | [27] > 100 µM | [28] 67.6 µM | [29] > 100 µM | [30] > 100 µM | [32] > 100 µM | [33] > 100 µM | [34] > 100 µM | [35] > 100 µM | [36] > 100 µM | [37] > 100 µM | [38] > 100 µM | [39] > 100 µM | [40] > 100 µM | [41] > 100 µM | [42] > 100 µM | [55] > 100 µM | [56] > 100 µM | [43] > 100 µM | [44] > 100 µM | [45] > 100 µM | [46] > 100 µM | [47] > 100 µM | [48] > 100 µM | [49] > 100 µM
